Results from US11306125B2, “PCSK9 antagonists bicyclo-compounds” (Merck Sharp & Dohme Corp., priority 2018, dated 2022).
Starred links: 1 amine or outer side, 2 acyl side, 3 side chain; linkers in the order of their positions; H or OH if unused. Positions of bridges follow the written chain, without caps; N, C: chain ends. Non-standard residues stand in square brackets, D forms with d. Residues, ends and D or L forms follow the SMILES beside them. *: point of attachment. X2 = CC1(C)C(/C=C/C=C/C=C2\N(CCCS(=O)(=O)O)c3ccc(S(=O)(=O)O)cc3C2(C)CCCCCC(=O)*)=[N+](CCCS(=O)(=O)[O-])c2ccc(S(=O)(=O)O)cc21; Phe(3-CH2NH2) = O=C([C@H](Cc1cccc(CN[*:3])c1)N[*:1])[*:2]; Me3N+(CH2)2O(CH2)2O(CH2)2CO = C[N+](C)(C)CCOCCOCCC(=O)*; Trp(5-F) = N[C@@H](Cc1c[nH]c2ccc(F)cc12)C(=O)O; X1 = O=C(CCC(=O)[*:1])NCc1ccc(CCN[*:2])cc1; mXylylene = c1cc(C[*:1])cc(C[*:2])c1; AEF = NCCOc1ccc(C[C@H](N)C(=O)O)cc1; Glutaryl = O=C(CCCC(=O)[*:2])[*:1]; NMeE = CN[C@@H](CCC(=O)O)C(=O)O; αMeP = C[C@@]1(C(=O)O)CCCN1; dDap = NC[C@@H](N)C(=O)O; Dap = NC[C@H](N)C(=O)O; Boc = CC(C)(C)OC(=O)*; Mpa = O=C(O)CCS; tBu = CC(C)(C)*

Assays:
Assay type in all cases: binding
PCSK9 [1] = biological target: T1, PCSK9 (Homo sapiens, UniProt Q8NBP7); experiment: PCSK9 Alexa FRET Standard TR-FRET assay
T1 construct: purchased
T1 sequence (Q8NBP7 153-692): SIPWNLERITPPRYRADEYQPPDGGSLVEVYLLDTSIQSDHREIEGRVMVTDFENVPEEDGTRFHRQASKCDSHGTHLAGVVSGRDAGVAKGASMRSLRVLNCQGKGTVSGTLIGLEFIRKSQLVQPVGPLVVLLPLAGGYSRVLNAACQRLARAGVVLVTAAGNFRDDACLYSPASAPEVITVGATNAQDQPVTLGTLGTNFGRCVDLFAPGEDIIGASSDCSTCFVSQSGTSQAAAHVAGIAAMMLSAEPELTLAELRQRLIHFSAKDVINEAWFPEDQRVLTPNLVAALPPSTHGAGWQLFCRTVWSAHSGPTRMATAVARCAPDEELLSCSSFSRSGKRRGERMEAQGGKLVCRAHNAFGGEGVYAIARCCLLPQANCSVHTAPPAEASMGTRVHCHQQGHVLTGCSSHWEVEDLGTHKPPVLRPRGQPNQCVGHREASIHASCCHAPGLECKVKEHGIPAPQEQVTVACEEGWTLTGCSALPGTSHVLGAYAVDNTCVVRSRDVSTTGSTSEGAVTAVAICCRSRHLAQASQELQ
Protocol: A solution containing 1 nM biotinylated PCSK9+2.5 nM Lance Streptavidin Europium (Strep-Eu) is made in 50 mM HEPES pH 7.4, 0.15 M NaCl, 5 mM CaCl2, 0.01% BSA, and 0.01% Surfactant P20. […] An Echo is used to transfer 0.750 ul of compound to an assay plate followed by the addition of 15 ul of PCSK9+Stept-Eu and 15 ul of AF peptide. […] The reaction is incubated at room temperature for at least two hours prior to fluorescence measurements using an Envision Multilabel Reader. IC50 values are determined by fitting data to a sigmoidal dose-response curve using nonlinear regression. Ki is then calculated from the Ic50 and the KD of AF cyclic peptide. Counts (B-counts) of the europium-labeled PCSK9 are followed to observe if compounds are adversely PCSK9. A fall off of the B-counts is likely indicates a false positive of inhibition. Data from this procedure is reported as “A=‘numerical value’ (nanomolar)”

PCSK9 [2] = biological target: T1, PCSK9; experiment: PCSK9 Alexa FRET Plus TR-FRET assay
Protocol: A solution containing 1 nM biotinylated PCSK9+2.5 nM Lance Streptavidin Europium (Strep-Eu) is made in 50 mM HEPES pH 7.4, 0.15 M NaCl, 5 mM CaCl2, 0.01% BSA, and 0.01% Surfactant P20. A separate solution containing 1920 nM of the AlexaFluor tagged cyclic peptide is made in the same buffer system. An Echo is used to transfer 0.075 ul of compound plus 0.675 ul of DMSO to each well of an assay plate followed by the addition of 15 ul of PCSK9+Stept-Eu and 15 ul of AF peptide. The final assay volume is 30.750 ul containing 0.5 nM PCSK9, 1.25 nM Strep-Eu, and 960 nM AF cyclic peptide. The reaction is incubated at room temperature for at least two hours prior to fluorescence measurements using an Envision Multilabel Reader. IC50 values are determined by fitting data to a sigmoidal dose-response curve using nonlinear regression. Ki is then calculated from the IC50 and the KD of AF cyclic peptide. Counts (B-counts) of the europium-labeled PCSK9 are followed to observe if compounds are adversely affecting PCSK9. A fall off of the B-counts is likely indicates a false positive of inhibition. Data from this procedure is reported as “P=‘numerical value’ (nanomolar)”

PCSK9 [3] = biological target: T1, PCSK9; experiment: KD of the AlexaFluor647 tagged cyclic peptide probes for PCSK9; details: AF tagged cyclic peptide probe, interaction with PCSK9
[4] = displacement of AlexaFluor647 tagged cyclic peptide Reagent A (20 nM) from biotinylated PCSK9 (0.5 nM), read-out: A (standard TR Fret), Ki calculated from the IC50 and the KD of AF cyclic peptide
[5] = displacement of AlexaFluor647 tagged cyclic peptide Reagent B (960 nM) from biotinylated PCSK9 (0.5 nM), read-out: Plus / P (Alexa Fret plus standard TR Fret), Ki calculated from the IC50 and the KD of AF cyclic peptide

| Compound | Ki (PCSK9 [1]; [4]) [nM] | Ki (PCSK9 [1]) [nM] | Ki (PCSK9 [2]) [nM] | other results |
| --- | --- | --- | --- | --- |
| COc1ccc(C[C@@H]2NC(=O)[C@H]([C@@H](C)O)NC(=O)[C@@H]3CCC(=O)NCc4cccc(c4)C[C@H](NC(=O)[C@@H](C)NC(=O)CCCC(=O)NCCOc4ccc(cc4)C[C@@H](C(N)=O)NC(=O)[C@]4(C)CCCN4C2=O)C(=O)N[C@@H](Cc2c[nH]c4ccc(F)cc24)C(=O)N3C)cc1 [Ex-C02] ([dA][Phe(3-CH2NH2)][Trp(5-F)][NMeE]TY(Me)[αMeP][AEF]-NH2; lactam 2-4; linker N-8 via Glutaryl) | 151 |  |  |  |
| COc1ccc(C[C@@H]2NC(=O)[C@H]([C@@H](C)O)NC(=O)[C@@H]3[C@@H]4CCN3C(=O)[C@H](Cc3c[nH]c5ccc(F)cc35)NC(=O)[C@H](Cc3cccc(c3)CNC(=O)CO4)NC(=O)[C@@H](C)NC(=O)[C@H](CNC(=O)CCOCCOCC[N+](C)(C)C)NC(=O)CCC(=O)NCc3ccc(cc3)CCNC(=O)[C@]3(C)CCCN3C2=O)cc1 [Ex-B02] |  | 4.02 | 2.19 |  |
| COc1ccc(C[C@@H]2NC(=O)[C@H]([C@@H](C)O)NC(=O)[C@@H]3CCC(=O)NCc4cccc(c4)C[C@H](NC(=O)[C@@H](CNC(=O)CCOCCOCC[N+](C)(C)C)NC(=O)[C@H](C)NC(=O)CCC(=O)NCc4ccc(cc4)CCNC(=O)[C@]4(C)CCCN4C2=O)C(=O)N[C@@H](Cc2c[nH]c4ccc(F)cc24)C(=O)N3C)cc1 [Ex-C07] (A[dDap](Me3N+(CH2)2O(CH2)2O(CH2)2CO)[Phe(3-CH2NH2)][Trp(5-F)][NMeE]TY(Me)[αMeP]; lactam 3-5; linker N-C via X1) | 7.17 |  |  |  |
| COc1ccc(C[C@@H]2NC(=O)[C@H]([C@@H](C)O)NC(=O)[C@@H]3CCC(=O)NCc4cccc(c4)C[C@H](NC(=O)[C@@H](C)NC(=O)[C@H](CN)NC(=O)CCC(=O)NCc4ccc(cc4)CCNC(=O)[C@]4(C)CCCN4C2=O)C(=O)N[C@@H](Cc2c[nH]c4ccc(F)cc24)C(=O)N3C)cc1 [Ex-C04] ([Dap][dA][Phe(3-CH2NH2)][Trp(5-F)][NMeE]TY(Me)[αMeP]; lactam 3-5; linker N-C via X1) | 4.24 |  |  |  |
| COc1ccc(C[C@@H]2NC(=O)[C@H]([C@@H](C)O)NC(=O)[C@@H]3CCC(=O)NCc4cccc(c4)C[C@H](NC(=O)[C@@H](CN)NC(=O)[C@H](C)NC(=O)CCC(=O)NCc4ccc(cc4)CCNC(=O)[C@]4(C)CCCN4C2=O)C(=O)N[C@@H](Cc2c[nH]c4ccc(F)cc24)C(=O)N3C)cc1 [Ex-C06] (A[dDap][Phe(3-CH2NH2)][Trp(5-F)][NMeE]TY(Me)[αMeP]; lactam 3-5; linker N-C via X1) | 15.9 |  |  |  |
| COc1ccc(C[C@@H]2NC(=O)[C@H]([C@@H](C)O)NC(=O)[C@@H]3[C@@H]4CCN3C(=O)[C@H](Cc3c[nH]c5ccc(F)cc35)NC(=O)[C@H](Cc3cccc(c3)CNC(=O)CO4)NC(=O)[C@@H](C)NC(=O)[C@H](CN)NC(=O)CCC(=O)NCc3ccc(cc3)CCNC(=O)[C@]3(C)CCCN3C2=O)cc1 [Ex-B01] |  | 2.04 | 1.24 |  |
| CC1(C)C(/C=C/C=C/C=C2\N(CCCS(=O)(=O)O)c3ccc(S(=O)(=O)O)cc3C2(C)CCCCCC(=O)NCCCC[C@@H]2NC(=O)CCSCc3cccc(c3)CSC[C@@H](C(N)=O)NC(=O)[C@]3(C)CCCN3C(=O)[C@H](Cc3ccc(O)cc3)NC(=O)[C@H](Cc3c[nH]cn3)NC(=O)[C@H](CC(=O)O)NC(=O)[C@H](Cc3c[nH]c4ccc(F)cc34)NC(=O)[C@H](Cc3c[nH]c4ccc(F)cc34)NC(=O)CNC2=O)=[N+](CCCS(=O)(=O)[O-])c2ccc(S(=O)(=O)O)cc21 (stereo partly shown) [Reagent A] ([Mpa]K(X2)G[Trp(5-F)][Trp(5-F)]DHY[αMeP]C-NH2; linker 1-10 via mXylylene) |  |  |  | Kd (PCSK9 [3]): 83 nM |
| COc1ccc(C[C@@H]2NC(=O)[C@H]([C@@H](C)O)NC(=O)[C@@H]3[C@@H]4CCN3C(=O)[C@H](Cc3c[nH]c5ccc(F)cc35)NC(=O)[C@H](Cc3cccc(c3)Cn3cc(nn3)CO4)NC(=O)[C@@H](C)NC(=O)[C@H](CNC(=O)CCOCCOCC[N+](C)(C)C)NC(=O)CCC(=O)NCc3ccc(cc3)CCNC(=O)[C@]3(C)CCCN3C2=O)cc1 [Ex-OT-06] |  | < 1.26 | 0.29 |  |
| COc1ccc(C[C@@H]2NC(=O)[C@H]([C@@H](C)O)NC(=O)C[C@@H]3[C@@H]4CCN3C(=O)[C@H](Cc3c[nH]c5ccc(F)cc35)NC(=O)[C@H](Cc3cccc(c3)CNC(=O)CO4)NC(=O)[C@@H](CNC(=O)CCOCCOCC[N+](C)(C)C)NC(=O)[C@H](C)NC(=O)CCC(=O)NCc3ccc(cc3)CCNC(=O)[C@]3(C)CCCN3C2=O)cc1 [Ex-B04] | < 1.26 |  |  | Ki (PCSK9 [2]; [5]): 0.02 nM |
| COc1ccc(C[C@@H]2NC(=O)[C@H]([C@H](C)O)NC(=O)[C@@H]3[C@@H]4CCN3C(=O)[C@H](Cc3c[nH]c5ccc(F)cc35)NC(=O)[C@H](Cc3cccc(c3)Cn3cc(nn3)CO4)NC(=O)[C@@H](C)NC(=O)[C@H](CNC(=O)CCOCCOCC[N+](C)(C)C)NC(=O)CCC(=O)NCc3ccc(cc3)C[C@@H](C(N)=O)NC(=O)[C@]3(C)CCCN3C2=O)cc1 [Ex-OT-05] |  | < 1.26 | 0.19 |  |
| COc1ccc(C[C@@H]2NC(=O)[C@H]([C@@H](C)O)NC(=O)[C@@H]3CCC(=O)NCc4cccc(c4)C[C@H](NC(=O)[C@@H](C)NC(=O)[C@H](CNC(=O)CCOCCOCC[N+](C)(C)C)NC(=O)CCC(=O)NCc4ccc(cc4)CCNC(=O)[C@]4(C)CCCN4C2=O)C(=O)N[C@@H](Cc2c[nH]c4ccc(F)cc24)C(=O)N3C)cc1 [Ex-C03] ([Dap](Me3N+(CH2)2O(CH2)2O(CH2)2CO)[dA][Phe(3-CH2NH2)][Trp(5-F)][NMeE]TY(Me)[αMeP]; lactam 3-5; linker N-C via X1) | 18.4 |  |  |  |
| COc1ccc(C[C@@H]2NC(=O)[C@H]([C@@H](C)OC(C)(C)C)NC(=O)[C@@H]3CCC(=O)NCc4cccc(c4)C[C@H](NC(=O)[C@@H](CNC(=O)OC(C)(C)C)NC(=O)[C@H](C)NC(=O)CCC(=O)NCc4ccc(cc4)CCNC(=O)[C@]4(C)CCCN4C2=O)C(=O)N[C@@H](Cc2c[nH]c4ccc(F)cc24)C(=O)N3C)cc1 [Ex-C05] (A[dDap](Boc)[Phe(3-CH2NH2)][Trp(5-F)][NMeE]T(tBu)Y(Me)[αMeP]; lactam 3-5; linker N-C via X1) | < 1.26 |  |  | Ki (PCSK9 [2]; [5]): 4.37 nM |
| COc1ccc(C[C@@H]2NC(=O)[C@H]([C@@H](C)O)NC(=O)[C@@H]3CCC(=O)NCc4cccc(c4)C[C@H](NC(=O)[C@@H](C)NC(=O)[C@H](C)NC(=O)[C@@H](NC(C)=O)CC(=O)NCCOc4ccc(cc4)C[C@@H](C(N)=O)NC(=O)[C@]4(C)CCCN4C2=O)C(=O)N[C@@H](Cc2c[nH]c4ccc(F)cc24)C(=O)N3C)cc1 [Ex-C01] (Ac-DA[dA][Phe(3-CH2NH2)][Trp(5-F)][NMeE]TY(Me)[αMeP][AEF]-NH2; lactam 1-10, 4-6) | 27.8 |  |  |  |
| COc1ccc(C[C@@H]2NC(=O)[C@H]([C@H](C)O)NC(=O)[C@@H]3[C@@H]4CCN3C(=O)[C@H](Cc3c[nH]c5ccc(F)cc35)NC(=O)[C@H](Cc3cccc(c3)Cn3cc(nn3)CO4)NC(=O)[C@@H](C)NC(=O)[C@H](C)NC(=O)[C@@H](NC(C)=O)CC(=O)NCc3ccc(cc3)C[C@@H](C(N)=O)NC(=O)[C@]3(C)CCCN3C2=O)cc1 [Ex-OT-03] | < 1.26 |  |  | Ki (PCSK9 [2]; [5]): 0.32 nM |
| COc1ccc(C[C@@H]2NC(=O)[C@H]([C@@H](C)O)NC(=O)[C@@H]3[C@@H]4CCN3C(=O)[C@H](Cc3c[nH]c5ccc(F)cc35)NC(=O)[C@H](Cc3cccc(c3)CNC(=O)CO4)NC(=O)C(CN)NC(=O)[C@H](C)NC(=O)CCC(=O)NCc3ccc(cc3)CCNC(=O)[C@]3(C)CCCN3C2=O)cc1 (stereo partly shown) [Ex-B03] |  | < 1.26 | 0.008 |  |
| COc1ccc(C[C@@H]2NC(=O)[C@H]([C@H](C)O)NC(=O)[C@@H]3[C@@H]4CCN3C(=O)[C@H](Cc3c[nH]c5ccc(F)cc35)NC(=O)[C@H](Cc3cccc(c3)Cn3cc(nn3)CO4)NC(=O)[C@@H](C)NC(=O)[C@H](CCCC[N+](C)(C)C)NC(=O)CCC(=O)NCc3ccc(cc3)C[C@@H](C(N)=O)NC(=O)[C@]3(C)CCCN3C2=O)cc1 [Ex-OT-04] | < 1.26 |  |  | Ki (PCSK9 [2]; [5]): 0.32 nM |
